Measured values: ChEMBL document CHEMBL4419164, “Methods and compositions for inhibiting cnksr1” (2018)
pIC50, pKd: −log10 of the molar value. The source made the active and inactive calls. The calls are words filed in the database; no cut-off is given here.

Columns and labels:
[1] = Toxicity in SCID mouse xenografted with human NCI-H2122 cells assessed as induction of observable toxic effects at 200 mg/kg/day dosed via gavage daily for 20 days; assay type: organism-based; conditions: in vivo, po, 480 h
[2] = target: T1, Connector enhancer of kinase suppressor of ras 1 (Homo sapiens) (UniProt Q969H4); test: Inhibition of GFP-tagged CNKSR1 (unknown origin) expressed in HEK293T cells assessed as blocking of membrane colocalization of CNKSR1 and mutant-KRas at plasma membrane at 50 uM incubated for 4 hrs by confocal imaging assay; assay type: cell-based
T1 sequence (whole entry): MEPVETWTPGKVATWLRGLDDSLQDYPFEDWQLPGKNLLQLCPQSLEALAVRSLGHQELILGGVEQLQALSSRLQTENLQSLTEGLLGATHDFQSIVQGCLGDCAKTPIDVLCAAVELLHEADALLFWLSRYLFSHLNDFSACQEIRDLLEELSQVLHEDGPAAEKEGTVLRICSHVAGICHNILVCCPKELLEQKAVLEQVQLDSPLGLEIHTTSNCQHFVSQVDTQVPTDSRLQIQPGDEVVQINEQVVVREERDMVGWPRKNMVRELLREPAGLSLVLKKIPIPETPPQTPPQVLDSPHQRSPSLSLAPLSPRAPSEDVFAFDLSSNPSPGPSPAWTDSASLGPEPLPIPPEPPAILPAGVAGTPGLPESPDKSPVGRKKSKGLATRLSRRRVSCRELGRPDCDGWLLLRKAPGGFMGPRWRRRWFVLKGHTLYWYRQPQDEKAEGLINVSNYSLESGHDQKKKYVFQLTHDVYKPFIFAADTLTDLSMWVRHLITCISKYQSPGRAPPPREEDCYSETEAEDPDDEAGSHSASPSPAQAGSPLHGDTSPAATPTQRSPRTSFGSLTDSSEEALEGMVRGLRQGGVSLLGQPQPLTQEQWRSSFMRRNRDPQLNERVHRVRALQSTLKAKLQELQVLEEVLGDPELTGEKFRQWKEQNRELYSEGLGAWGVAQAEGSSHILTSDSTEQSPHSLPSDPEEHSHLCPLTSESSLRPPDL

[3] = Half life in beagle dog plasma at 50 ug/ml at 37 degC at pH 7.4; assay type: ADME, cell-free, Canis lupus familiaris
HCC515 [4] = test: Growth inhibition of human HCC515 cells incubated for 3 days; assay type: functional, cell-based; conditions: HCC515, 72 h
[5] = Half life in mouse plasma at 50 ug/ml at 37 degC at pH 7.4; assay type: ADME, cell-free
[6] = Half life in C57BL6 mouse at 250 mg/kg, po dosed via gavage as single administration; assay type: ADME, organism-based; conditions: in vivo
HCC515 [7] = test: Growth inhibition of human HCC515 cells relative to control; assay type: functional, cell-based
NCI-H2122 [8] = test: Growth inhibition of human NCI-H2122 cells relative to control; assay type: functional, cell-based
NCI-H1373 = test: Growth inhibition of human NCI-H1373 cells relative to control; assay type: functional, cell-based
[9] = target: T1, Connector enhancer of kinase suppressor of ras 1 (Homo sapiens); test: Inhibition of GFP-tagged CNKSR1 (unknown origin) expressed in HEK293T cells assessed as inhibition of direct binding of CNKSR1 to mut-KRAS at 50 uM incubated for 4 hrs by fluorescence lifetime imaging microscopy; assay type: cell-based
HCC95 = test: Growth inhibition of human HCC95 cells incubated for 3 days; assay type: functional, cell-based; conditions: HCC95, 72 h
[10] = target: Rho guanine nucleotide exchange factor TIAM1 (Homo sapiens) (UniProt Q13009); test: Binding affinity to TIAM1 PH-domain (unknown origin) at 0.01 to 50 uM by SPR spectroscopy
Chain of Rho guanine nucleotide exchange factor TIAM1 (Homo sapiens) (Q13009 whole entry): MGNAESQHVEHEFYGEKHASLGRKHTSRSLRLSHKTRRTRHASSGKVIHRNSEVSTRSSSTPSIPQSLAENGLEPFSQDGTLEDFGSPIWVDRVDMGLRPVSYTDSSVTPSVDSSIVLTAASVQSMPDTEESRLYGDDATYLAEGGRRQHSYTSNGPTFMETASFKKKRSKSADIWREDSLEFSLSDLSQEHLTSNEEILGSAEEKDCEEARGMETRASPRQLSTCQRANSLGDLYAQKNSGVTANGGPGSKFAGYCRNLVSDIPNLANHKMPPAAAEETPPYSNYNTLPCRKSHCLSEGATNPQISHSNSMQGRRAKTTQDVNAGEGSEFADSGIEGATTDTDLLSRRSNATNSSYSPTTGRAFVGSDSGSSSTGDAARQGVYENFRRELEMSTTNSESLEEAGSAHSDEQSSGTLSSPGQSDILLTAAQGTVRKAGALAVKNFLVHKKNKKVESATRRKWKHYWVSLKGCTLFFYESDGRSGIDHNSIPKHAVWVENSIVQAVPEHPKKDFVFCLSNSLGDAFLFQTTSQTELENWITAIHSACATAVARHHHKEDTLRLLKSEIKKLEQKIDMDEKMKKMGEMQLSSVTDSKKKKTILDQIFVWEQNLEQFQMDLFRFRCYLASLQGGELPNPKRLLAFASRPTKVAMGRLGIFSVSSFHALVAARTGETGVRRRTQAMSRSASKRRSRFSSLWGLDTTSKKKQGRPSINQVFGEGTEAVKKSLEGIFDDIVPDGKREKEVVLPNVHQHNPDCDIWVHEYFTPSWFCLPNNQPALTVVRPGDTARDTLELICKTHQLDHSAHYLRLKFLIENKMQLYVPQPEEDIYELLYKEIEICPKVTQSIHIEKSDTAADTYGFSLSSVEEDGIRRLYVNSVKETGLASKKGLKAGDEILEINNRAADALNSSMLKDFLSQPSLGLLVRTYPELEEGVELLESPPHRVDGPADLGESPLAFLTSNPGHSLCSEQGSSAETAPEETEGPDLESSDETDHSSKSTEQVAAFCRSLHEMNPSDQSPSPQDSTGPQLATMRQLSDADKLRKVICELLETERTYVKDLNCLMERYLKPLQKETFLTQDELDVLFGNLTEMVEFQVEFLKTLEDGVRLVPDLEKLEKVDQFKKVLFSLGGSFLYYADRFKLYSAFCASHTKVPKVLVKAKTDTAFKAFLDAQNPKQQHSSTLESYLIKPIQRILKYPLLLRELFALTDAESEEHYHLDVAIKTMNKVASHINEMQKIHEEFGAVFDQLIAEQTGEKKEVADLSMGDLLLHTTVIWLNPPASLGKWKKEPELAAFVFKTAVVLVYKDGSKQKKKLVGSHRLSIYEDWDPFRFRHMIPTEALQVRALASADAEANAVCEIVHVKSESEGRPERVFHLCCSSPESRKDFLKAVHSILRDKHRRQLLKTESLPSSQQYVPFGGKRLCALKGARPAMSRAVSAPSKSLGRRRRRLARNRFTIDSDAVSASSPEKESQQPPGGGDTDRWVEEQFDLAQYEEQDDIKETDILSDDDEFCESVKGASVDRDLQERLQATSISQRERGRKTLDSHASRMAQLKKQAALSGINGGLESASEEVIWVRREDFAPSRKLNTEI

NCI-H2122 [11] = test: Antitumor activity against human NCI-H2122 cells xenografted in SCID mouse assessed as inhibition of tumor growth at 200 mg/kg/day dosed via gavage daily for 20 days relative to control; assay type: functional; conditions: NCI-H2122, po, 480 h, read-out: TGI
[12] = target: T1, Connector enhancer of kinase suppressor of ras 1 (Homo sapiens); test: Inhibition of CNKSR1 PH-domain (unknown origin) assessed as reduction in c-RAF Ser338 phosphorylation at 25 to 50 uM by cell based Western blot analysis
[13] = target: T2, Connector enhancer of kinase suppressor of ras 1 (Homo sapiens, UniProt Q969H4); test: Binding affinity to CNKSR1 PH-domain (unknown origin) by SPR spectroscopy; conditions: read-out: Kd
T2 sequence (Q969H4 whole entry): T1 sequence (whole entry)

[14] = Drug metabolism in C57BL6 mouse plasma assessed as Cmax for 2-(4-oxo-3-((4-p-tolylthiazol-2-yl)methyl)-3,4-dihydrophthalazin-1-yl)acetic acid at 250 mg/kg, po dosed via gavage as single administration; assay type: ADME, organism-based; set-up: dose 250 mg/kg, route oral; conditions: in vivo
[15] = Plasma concentration in C57BL6 mouse at 250 mg/kg, po dosed via gavage as single administration; assay type: ADME, organism-based; conditions: in vivo
[16] = Toxicity in SCID mouse xenografted with human NCI-H2122 cells assessed as induction of weight loss at 200 mg/kg/day dosed via gavage daily for 20 days; assay type: organism-based; conditions: in vivo, po, 480 h
[17] = Half life in 10% fetal bovine serum at 50 ug/ml at 37 degC at pH 7.4; assay type: ADME, cell-free, Bos taurus; conditions: cattle
NCI-H2122 [18] = test: Growth inhibition of human NCI-H2122 cells incubated for 3 days; assay type: functional, cell-based; conditions: NCI-H2122, 72 h
[19] = Terminal half life in iv dosed mouse; assay type: ADME, organism-based; conditions: in vivo, read-out: beta t1/2
[20] = target: T1, Connector enhancer of kinase suppressor of ras 1 (Homo sapiens); test: Inhibition of CNKSR1 (unknown origin) assessed as reduction in inhibition of KRas signaling effectors by measuring p-MAPK levels at 20 uM by cell based assay
[21] = target: T1, Connector enhancer of kinase suppressor of ras 1 (Homo sapiens); test: Inhibition of CNKSR1 (unknown origin) assessed as reduction in inhibition of KRas signaling effectors by measuring GTP-RalA levels at 20 uM by cell based assay
[22] = target: T1, Connector enhancer of kinase suppressor of ras 1 (Homo sapiens); test: Inhibition of CNKSR1 (unknown origin) assessed as reduction in inhibition of KRas signaling effectors by measuring p-AKT levels at 20 uM by cell based assay
[23] = Half life in human plasma at 50 ug/ml at 37 degC at pH 7.4; assay type: ADME, cell-free

## CCOC(=O)Cc1nn(Cc2nc(-c3ccc(C)cc3)cs2)c(=O)c2ccccc12
[1]
  Activity: Non-Toxic
[2]
  inhibition: Active
[3]
  half-life at 50 ug/ml: 9.3 h
HCC515 [4]
  pIC50: 4.15
[5]
  half-life at 50 ug/ml: 6.3 min
[6]
  half-life: 6 h
HCC515 [7]
  growth inhibition (GI): Active
NCI-H2122 [8]
  growth inhibition (GI): Active
NCI-H1373
  growth inhibition (GI): Active
[9]
  inhibition: Active
HCC95
  pIC50: < 4.00
[10]
  Activity: inactive
NCI-H2122 [11]
  inhibition in vivo at 200 mg/kg/day: 45%
[12]
  inhibition: Active
[13]
  pKd: 5.49 to 5.74
[14]
  Cmax: 128 µM
[15]
  concentration: 7 µM
[16]
  Activity: Non-Toxic
[17]
  half-life at 50 ug/ml: 13.2 h
NCI-H2122 [18]
  pIC50: 4.57
[19]
  half-life: 3 min
[20]
  inhibition: Active
[21]
  inhibition: Active
[22]
  inhibition: Active
[23]
  t1/2: Stable
